Patent US10988502B2, “Alpha-D-galactoside inhibitors of galectins” (GALECTO BIOTECH AB, priority 2016, dated 2021)

What was measured:
Galectin-3 = Galectin-3 (Homo sapiens (Human), UniProt P17931); assay: Fluorescence anisotropy assay, compound as inhibitor of galectin / fluorescein tagged saccharide probe interaction; type: binding
Procedure: (§1) The affinity of Example 1-32 for galectins were determined by a fluorescence anisotropy assay where the compound was used as an inhibitor of the interaction between galectin and a fluorescein tagged saccharide probe as described Sörme, P., Kahl-Knutsson, B., Huflejt, M., Nilsson, U. J., and Leffler H. (2004) Fluorescence polarization as an analytical tool to evaluate galectin-ligand interactions. Anal. Biochem. 334: 36-47, (Sörme et al., 2004) and Monovalent interactions of Galectin-1 By Salomonsson, Emma; Larumbe, Amaia; Tejler, Johan; Tullberg, Erik; Rydberg, Hanna; Sundin, Anders; Khabut, Areej; Frejd, Torbjorn; Lobsanov, Yuri D.; Rini, James M.; et al, From Biochemistry (2010), 49(44), 9518-9532, (Salonmonsson et al., 2010).

Galectin-1 = Galectin-1 (Homo sapiens (Human), UniProt P09382); assay: as above; type: binding
Procedure: as §1

Chain of Galectin-3 (P17931 whole entry): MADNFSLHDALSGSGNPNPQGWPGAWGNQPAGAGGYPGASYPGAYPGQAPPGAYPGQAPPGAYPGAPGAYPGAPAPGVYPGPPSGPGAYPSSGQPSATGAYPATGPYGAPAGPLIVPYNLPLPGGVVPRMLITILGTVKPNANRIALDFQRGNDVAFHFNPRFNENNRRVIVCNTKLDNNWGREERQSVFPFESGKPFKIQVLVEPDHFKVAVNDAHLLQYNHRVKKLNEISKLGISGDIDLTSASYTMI

Row | SMILES | Kd (Galectin-3) [nM] | Kd (Galectin-1) [nM]
1 | OC[C@H]1O[C@H](Sc2ccc(Cl)c(Cl)c2)[C@H](O)[C@@H](n2cc(-c3cscn3)nn2)[C@H]1O [Example 12, 3,4-Dichlorophenyl 3-deoxy-3-[4-(4-thiazolyl)-1H-1,2,3-triazol-1-yl]-1-thio-α-D-galactopyranoside] | 5300 | 310
2 | OC[C@H]1O[C@H](Sc2ccc(Cl)c(Cl)c2)[C@H](O)[C@@H](n2cc(-c3ccc(F)cn3)nn2)[C@H]1O [Example 6, 3,4-Dichlorophenyl 3-deoxy-3-[4-(5-fluoro-2-pyridyl)-1H-1,2,3-triazol-1-yl]-1-thio-α-D-galactopyranoside] | 690 | 240
3 | Cc1nc(-c2cn([C@@H]3[C@@H](O)[C@@H](Sc4cncc(Br)c4)O[C@H](CO)[C@@H]3O)nn2)cs1 [Example 15, 5-Bromopyridin-3-yl 3-deoxy-3-[4-(2-methyl-4-thiazolyl)-1H-1,2,3-triazol-1-yl]-1-thio-α-D-galactopyranoside] | 3200 | 640
4 | OC[C@H]1O[C@H](Sc2cncc(Cl)c2)[C@H](O)[C@@H](n2cc(-c3nccs3)nn2)[C@H]1O [Example 21, 5-Chloropyridin-3-yl 3-deoxy-3-[4-(2-thiazolyl)-1H-1,2,3-triazol-1-yl]-1-thio-α-D-galactopyranoside] | 1800 | 220
5 | OC[C@H]1O[C@H](Sc2cnc(C(F)(F)F)c(Br)c2)[C@H](O)[C@@H](n2cc(-c3cscn3)nn2)[C@H]1O [Example 11, 5-Bromo-6-trifluoromethyl-pyridin-3-yl 3-deoxy-3-[4-(4-thiazolyl)-1H-1,2,3-triazol-1-yl]-1-thio-α-D-galactopyranoside] | 2900 | 170
6 | N#Cc1ncc(S[C@H]2O[C@H](CO)[C@H](O)[C@H](n3cc(-c4nccs4)nn3)[C@H]2O)cc1Cl [Example 23, 5-Chloro-6-cyano-pyridine-3-yl 3-deoxy-3-[4-(2-thiazolyl)-1H-1,2,3-triazol-1-yl]-1-thio-α-D-galactopyranoside] | 4400 | 440
7 | N#Cc1ncc(Br)cc1S[C@H]1O[C@H](CO)[C@H](O)[C@H](n2cc(-c3nccs3)nn2)[C@H]1O [Example 22, 5-Bromo-2-cyano-pyridine-3-yl 3-deoxy-3-[4-(2-thiazolyl)-1H-1,2,3-triazol-1-yl]-1-thio-α-D-galactopyranoside] | 1200 | 200
8 | OC[C@H]1O[C@H](Sc2cc(Cl)c(F)c(Cl)c2)[C@H](O)[C@@H](n2cc(-c3cccs3)nn2)[C@H]1O [Example 8, 3,5-Dichloro-4-fluoro-phenyl 3-deoxy-3-[4-(2-thiophenyl)-1H-1,2,3-triazol-1-yl]-1-thio-α-D-galactopyranoside] | 2300 | 920
9 | OC[C@H]1O[C@H](Sc2cc(Cl)c(Cl)c(Cl)c2)[C@H](O)[C@@H](n2cc(-c3nccs3)nn2)[C@H]1O [Example 17, 3,4,5-Trichlorophenyl 3-deoxy-3-[4-(2-thiazolyl)-1H-1,2,3-triazol-1-yl]-1-thio-α-D-galactopyranoside] | 1300 | 610
10 | OC[C@H]1O[C@H](Sc2cncc(Br)c2)[C@H](O)[C@@H](n2cc(-c3cscn3)nn2)[C@H]1O [Example 10, 5-Bromopyridin-3-yl 3-deoxy-3-[4-(4-thiazolyl)-1H-1,2,3-triazol-1-yl]-1-thio-α-D-galactopyranoside] | 4100 | 250
11 | OC[C@H]1O[C@H](Sc2ccc(F)c(Br)c2)[C@H](O)[C@@H](n2cc(-c3nccs3)nn2)[C@H]1O [Example 27, 3-Bromo-4-fluoro-phenyl 3-deoxy-3-[4-(2-thiazolyl)-1H-1,2,3-triazol-1-yl]-1-thio-α-D-galactopyranoside] | 4700 | 490
12 | OCC1O[C@H](Sc2cncc(Br)c2)C(O)[C@@H](n2cc(-c3nccs3)nn2)[C@H]1O (stereo partly drawn) [Example 20, 5-Bromopyrdin-3-yl 3-deoxy-3-[4-(2-thiazolyl)-1H-1,2,3-triazol-1-yl]-1-thio-α-D-galactopyranoside] | 4600 | 550
13 | N#Cc1c(Cl)cc(S[C@H]2OC(CO)[C@H](O)[C@H](n3cc(-c4nccs4)nn3)C2O)cc1Cl (stereo partly drawn) [Example 16, 2,6-Dichloro-bensonitril-4-yl 3-deoxy-3-[4-(2-thiazolyl)-1H-1,2,3-triazol-1-yl]-1-thio-α-D-galactopyranoside] | 12000 | 800
14 | OC[C@H]1O[C@H](Sc2cnc(C(F)(F)F)c(Br)c2)[C@H](O)[C@@H](n2cc(-c3nccs3)nn2)[C@H]1O [Example 26, 5-Bromo-6-trifluoromethyl-pyridine-3-yl 3-deoxy-3-[4-(2-thiazolyl)-1H-1,2,3-triazol-1-yl]-1-thio-α-D-galactopyranoside] | 2000 | 310
15 | OC[C@H]1O[C@H](Sc2cncc(Br)c2)[C@H](O)[C@@H](n2cc(-c3cccs3)nn2)[C@H]1O [Example 7, 5-Bromopyridin-3-yl 3-deoxy-3-[4-(2-thiophenyl)-1H-1,2,3-triazol-1-yl]-1-thio-α-D-galactopyranoside] | 1250 | 450
16 | OCC1O[C@H](Sc2ccc(Cl)c(Cl)c2)C(O)[C@@H](n2cc(-c3nc(Br)cs3)nn2)[C@H]1O (stereo partly drawn) [Example 29, 3,4-dichlorophenyl 3-deoxy-3-[4-(4-bromo-2-thiazol-2-yl)-1H-1,2,3-triazol-1-yl]-1-thio-α-D-galactopyranoside] | 810 | 150
17 | OC[C@H]1O[C@H](Sc2ccc(Cl)c(Cl)c2)[C@H](O)[C@@H](n2cc(-c3nc(Cl)cs3)nn2)[C@H]1O [Example 31, 3,4-Dichlorophenyl 3-deoxy-3-[4-(4-chloro-thiazol-2-yl)-1H-1,2,3-triazol-1-yl]-1-thio-α-D-galactopyranoside] | 460 | 120
18 | OC[C@H]1O[C@H](Sc2cncc(Br)c2)[C@H](O)[C@@H](n2cc(-c3ccsc3)nn2)[C@H]1O [Example 3, 5-Bromopyridin-3-yl 3-deoxy-3-[4-(3-thiophenyl)-1H-1,2,3-triazol-1-yl]-1-thio-α-D-galactopyranoside] | 1700 | 680
19 | OC[C@H]1O[C@H](Sc2cc(Cl)ccc2Cl)[C@H](O)[C@@H](n2cc(-c3nccs3)nn2)[C@H]1O [Example 28, 2,5-Dichlorophenyl 3-deoxy-3-[4-(2-thiazolyl)-1H-1,2,3-triazol-1-yl]-1-thio-α-D-galactopyranoside] | 8200 | 910
20 | OC[C@H]1O[C@H](Sc2cc(Cl)cc(Cl)c2)[C@H](O)[C@@H](n2cc(-c3nccs3)nn2)[C@H]1O [Example 24, 3,5-Dichlorophenyl 3-deoxy-3-[4-(2-thiazolyl)-1H-1,2,3-triazol-1-yl]-1-thio-α-D-galactopyranoside] | 1600 | 340
21 | OC[C@H]1O[C@H](Sc2ccc(Cl)c(Cl)c2)[C@H](O)[C@@H](n2cc(-c3ncc(F)s3)nn2)[C@H]1O [Example 30, 3,4-Dichlorophenyl 3-deoxy-3-[4-(5-fluoro-thiazol-2-yl)-1H-1,2,3-triazol-1-yl]-1-thio-α-D-galactopyranoside] | 1600 | 400
22 | OC[C@H]1O[C@H](Sc2cc(Cl)c(Cl)c(Cl)c2)[C@H](O)[C@@H](n2cc(-c3nncs3)nn2)[C@H]1O [Example 19, 3,4,5-Trichlorophenyl 3-deoxy-3-[4-(1,3,4-thiadiazol-2-yl)-1H-1,2,3-triazol-1-yl]-1-thio-α-D-galactopyranoside] | 4400 | 350
23 | OC[C@H]1O[C@H](Sc2ccc(Cl)c(Cl)c2)[C@H](O)[C@@H](n2cc(-c3nccs3)nn2)[C@H]1O [Example 18, 3,4-Dichlorophenyl 3-deoxy-3-[4-(2-thiazolyl)-1H-1,2,3-triazol-1-yl]-1-thio-α-D-galactopyranoside] | 4100 | 240
24 | OC[C@H]1O[C@H](Sc2ccc(Cl)c(Br)c2)[C@H](O)[C@@H](n2cc(-c3nccs3)nn2)[C@H]1O [Example 25, 3-Bromo-4-chlorophenyl 3-deoxy-3-[4-(2-thiazolyl)-1H-1,2,3-triazol-1-yl]-1-thio-α-D-galactopyranoside] | 4400 | 440
25 | OC[C@H]1O[C@H](Sc2ccc(Cl)c(Cl)c2)[C@H](O)[C@@H](n2cc(-c3ccc(F)s3)nn2)[C@H]1O [Example 9, 3,4-Dichlorophenyl 3-deoxy-3-[4-(5-fluoro-2-thiophenyl)-1H-1,2,3-triazol-1-yl]-1-thio-α-D-galactopyranoside] | 970 | 550
26 | N#Cc1cc(F)c(S[C@H]2OC(CO)[C@H](O)[C@H](n3cc(-c4ccsc4)nn3)C2O)cc1Cl (stereo partly drawn) [Example 2, 2-Chloro-5-fluoro-benzonitril-4-yl 3-deoxy-3-[4-(3-thiophenyl)-1H-1,2,3-triazol-1-yl]-1-thio-α-D-galactopyranoside] | 1950 | 190
27 | N#Cc1ccc(S[C@H]2OC(CO)[C@H](O)[C@H](n3cc(-c4cscn4)nn3)C2O)cc1Cl (stereo partly drawn) [Example 13, 2-Chloro-benzonitril-4-yl 3-deoxy-3-[4-(4-thiazolyl)-1H-1,2,3-triazol-1-yl]-1-thio-α-D-galactopyranoside] | 6100 | 370
28 | OC[C@H]1O[C@H](Sc2ccc(Cl)c(Cl)c2)[C@H](O)[C@@H](n2cc(-c3nc(C(F)(F)F)cs3)nn2)[C@H]1O [Example 32, 3,4-Dichlorophenyl 3-deoxy-3-[4-(4-trifluoromethyl-thiazol-2-yl)-1H-1,2,3-triazol-1-yl]-1-thio-α-D-galactopyranoside] | 210 | 790
